pKi: −log10 of the molar value.
Tests used:
Cannabinoid receptor 2 = Cannabinoid receptor 2 (Homo sapiens, UniProt P34972); assay: Displacement of radioligand from human CB2 receptor expressed in CHO cells; assay type: cell-based
[1] = biological target: ATP-dependent translocase ABCB1 (Homo sapiens, UniProt P08183); assay: Drug transport assessed as MDR1 -mediated transcellular transport ratio by P-gp transport assay; assay type: ADME
[2] = Apparent passive permeability coefficient by cell based assay; assay type: ADME
[3] = Oral bioavailability in Sprague-Dawley rat at 10 mg/kg; assay type: ADME, organism-based; conditions: in vivo
[4] = Half life in Sprague-Dawley rat at 10 mg/kg, po or 2 mg/kg, iv; assay type: ADME, organism-based; conditions: in vivo
[5] = Clearance in Sprague-Dawley rat at 10 mg/kg, po or 2 mg/kg, iv; assay type: ADME, organism-based; conditions: in vivo
[6] = Half life in Mongrel dog at 3 mg/kg, po or 1 mg/kg, iv; assay type: ADME, organism-based, Canis lupus familiaris; conditions: in vivo
[7] = Clearance in Mongrel dog at 3 mg/kg, po or 1 mg/kg, iv; assay type: ADME, organism-based, Canis lupus familiaris; conditions: in vivo
Liver microsomes = assay: Stability in human liver microsomes; assay type: ADME, Microsome

Cannabinoid receptor 2, sequence (P34972 whole entry): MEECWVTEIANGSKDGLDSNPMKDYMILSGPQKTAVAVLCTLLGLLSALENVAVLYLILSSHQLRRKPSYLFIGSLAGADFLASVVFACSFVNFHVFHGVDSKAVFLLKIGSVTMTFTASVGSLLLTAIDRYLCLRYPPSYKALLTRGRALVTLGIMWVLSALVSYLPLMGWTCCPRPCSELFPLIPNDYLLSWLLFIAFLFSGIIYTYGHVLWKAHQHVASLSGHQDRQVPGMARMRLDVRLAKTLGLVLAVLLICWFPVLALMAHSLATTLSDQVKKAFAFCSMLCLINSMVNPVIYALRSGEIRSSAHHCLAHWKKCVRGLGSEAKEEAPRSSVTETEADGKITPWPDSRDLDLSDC
ATP-dependent translocase ABCB1, sequence (P08183 whole entry): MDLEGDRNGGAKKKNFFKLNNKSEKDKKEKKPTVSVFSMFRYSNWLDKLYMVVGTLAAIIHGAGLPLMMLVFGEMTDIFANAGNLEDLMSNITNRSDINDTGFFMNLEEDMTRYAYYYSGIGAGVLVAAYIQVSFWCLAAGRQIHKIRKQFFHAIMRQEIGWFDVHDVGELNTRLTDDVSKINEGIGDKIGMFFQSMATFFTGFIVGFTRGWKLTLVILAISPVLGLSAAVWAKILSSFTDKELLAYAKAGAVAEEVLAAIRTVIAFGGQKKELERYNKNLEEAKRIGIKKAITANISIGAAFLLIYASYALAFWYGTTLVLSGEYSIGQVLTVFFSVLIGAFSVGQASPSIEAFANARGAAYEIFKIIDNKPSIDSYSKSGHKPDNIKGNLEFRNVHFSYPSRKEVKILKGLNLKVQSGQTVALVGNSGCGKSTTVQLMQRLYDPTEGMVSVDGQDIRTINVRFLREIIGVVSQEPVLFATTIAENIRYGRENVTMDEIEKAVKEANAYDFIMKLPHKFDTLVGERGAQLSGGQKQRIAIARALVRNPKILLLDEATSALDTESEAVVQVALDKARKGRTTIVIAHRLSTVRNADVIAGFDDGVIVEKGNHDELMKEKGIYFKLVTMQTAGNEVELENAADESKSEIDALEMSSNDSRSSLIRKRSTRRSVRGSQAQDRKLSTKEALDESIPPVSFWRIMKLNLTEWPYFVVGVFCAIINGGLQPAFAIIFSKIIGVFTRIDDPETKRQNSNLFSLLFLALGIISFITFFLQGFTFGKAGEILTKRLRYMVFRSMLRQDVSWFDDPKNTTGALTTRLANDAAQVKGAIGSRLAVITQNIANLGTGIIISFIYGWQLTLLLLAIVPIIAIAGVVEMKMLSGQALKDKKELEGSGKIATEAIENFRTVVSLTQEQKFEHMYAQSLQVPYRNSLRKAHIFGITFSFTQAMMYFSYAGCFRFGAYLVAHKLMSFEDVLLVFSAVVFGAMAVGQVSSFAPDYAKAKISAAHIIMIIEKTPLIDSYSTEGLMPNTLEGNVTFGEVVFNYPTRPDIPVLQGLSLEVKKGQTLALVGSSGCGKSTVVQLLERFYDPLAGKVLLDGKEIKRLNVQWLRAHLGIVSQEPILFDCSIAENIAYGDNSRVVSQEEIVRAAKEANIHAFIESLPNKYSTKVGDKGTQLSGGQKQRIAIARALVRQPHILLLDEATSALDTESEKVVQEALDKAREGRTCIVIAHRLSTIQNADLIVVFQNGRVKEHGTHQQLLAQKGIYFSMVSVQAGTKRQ

With `COc1cc(C(=O)NC2(C(=O)N[C@H](C)c3ccc(-n4nc(C)c5ccccc54)cc3F)CC2)on1` the pKi (Cannabinoid receptor 2) was under 5.00.

Work on `CCc1nn(-c2ccc([C@@H](C)NC(=O)C3(NC(=O)c4cc(OC)no4)CC3)c(F)c2)c2ccccc12` yielded a pKi (Cannabinoid receptor 2) of under 5.00.

Molecule `COc1cc(C(=O)NC2(C(=O)N[C@H](C)c3ccc(-n4nc(C5CC5)c5ccccc54)cc3F)CC2)on1` has a pKi (Cannabinoid receptor 2) of under 5.00.

`COc1cc(C(=O)NC2(C(=O)N[C@H](C)c3ccc(-n4nc(-c5ccccc5)c5ccccc54)cc3F)CC2)on1` showed a pKi (Cannabinoid receptor 2) of under 5.00.

Work on `COc1cc(C(=O)NC2(C(=O)N[C@H](C)c3ccc(-n4nc(Br)c5ccccc54)cc3F)CC2)on1` yielded a pKi (Cannabinoid receptor 2) of under 5.00.

With `COc1cc(C(=O)NC2(C(=O)N[C@H](C)c3ccc(-n4[nH]c(=O)c5ccccc54)cc3F)CC2)on1` the pKi (Cannabinoid receptor 2) was under 5.00.

With `COc1cc(C(=O)NC2(C(=O)N[C@H](C)c3ccc(-n4nc(OC)c5ccccc54)cc3F)CC2)on1` the pKi (Cannabinoid receptor 2) was under 5.00.

With `COc1cc(C(=O)NC2(C(=O)N[C@H](C)c3ccc(-n4nc(C#N)c5ccccc54)cc3F)CC2)on1` the pKi (Cannabinoid receptor 2) was under 5.00.

`COc1cc(C(=O)NC2(C(=O)N[C@H](C)c3ccc(-n4nc(Cl)c5ccccc54)cc3F)CC2)on1` gave a pKi (Cannabinoid receptor 2) of under 5.00, a Ratio [1] of 1.6 and a Papp [2] of 26 ×10⁻⁶ cm/s. The bioavailability [3] was 49%, the half-life [4] was 186 min and the clearance [5] was 5.3 mL/min/kg. For the same molecule, the half-life [6] was 1250 min and the clearance [7] was 1.3 mL/min/kg.

For `C[C@@H](NC(=O)C1(NC(=O)c2cncs2)CC1)c1ccc(-n2nc(Cl)c3ccccc32)cc1F`, the Ratio [1] was 2.8, the Papp [2] was 19 ×10⁻⁶ cm/s and the half-life [6] was 258 min. The clearance [7] was 1.1 mL/min/kg.

In the case of `COc1ncc(C(=O)NC2(C(=O)N[C@H](C)c3ccc(-n4nc(Cl)c5ccccc54)cc3F)CC2)s1`, the Ratio [1] was 1.8, the Papp [2] was 14 ×10⁻⁶ cm/s and the bioavailability [3] was 13%. The half-life [4] was 498 min, the clearance [5] was 12.7 mL/min/kg and the half-life [6] was 498 min. It also gave a clearance [7] of 1.7 mL/min/kg.

In the case of `COc1cc(C(=O)NC2(C(=O)N[C@H](C)c3ccc(-n4ncc5ccccc54)cc3F)CC2)on1`, the pKi (Cannabinoid receptor 2) was under 5.00.

With `Cc1ncsc1C(=O)NC1(C(=O)N[C@H](C)c2ccc(-n3nc(Cl)c4ccccc43)cc2F)CC1` the Stability (Liver microsomes) was “Unstable”.

`Cc1nnsc1C(=O)NC1(C(=O)N[C@H](C)c2ccc(-n3nc(Cl)c4ccccc43)cc2F)CC1` showed a Ratio [1] of 2.3, a Papp [2] of 21 ×10⁻⁶ cm/s and a half-life [6] of 144 min. It also gave a clearance [7] of 9.6 mL/min/kg.

In the case of `C[C@@H](NC(=O)C1(NC(=O)c2cn[nH]c2)CC1)c1ccc(-n2nc(Cl)c3ccccc32)cc1F`, the Stability (Liver microsomes) was “Stable”, the Ratio [1] was 55.6 and the Papp [2] was 19 ×10⁻⁶ cm/s.

Work on `C[C@@H](NC(=O)C1(NC(=O)c2ccc(Br)nc2)CC1)c1ccc(-n2nc(Cl)c3ccccc32)cc1F` yielded a Ratio [1] of 2.2, a Papp [2] of 8.2 ×10⁻⁶ cm/s and a half-life [6] of 426 min. It also gave a clearance [7] of 2.6 mL/min/kg.

With `Cc1cncc(C(=O)NC2(C(=O)N[C@H](C)c3ccc(-n4nc(Cl)c5ccccc54)cc3F)CC2)c1` the Ratio [1] was 1.9, the Papp [2] was 22 ×10⁻⁶ cm/s and the half-life [6] was 156 min. The clearance [7] was 4.3 mL/min/kg.

Work on `C[C@@H](NC(=O)C1(NC(=O)c2cncc(O)c2)CC1)c1ccc(-n2nc(Cl)c3ccccc32)cc1F` yielded a Ratio [1] of 89 and a Papp [2] of 18 ×10⁻⁶ cm/s.

Molecule `COc1cncc(C(=O)NC2(C(=O)N[C@H](C)c3ccc(-n4nc(Cl)c5ccccc54)cc3F)CC2)c1` has a Ratio [1] of 5.3, a Papp [2] of 21 ×10⁻⁶ cm/s and a bioavailability [3] of 6%. For the same molecule, the half-life [4] was 42 min, the clearance [5] was 7.8 mL/min/kg and the half-life [6] was 138 min. For the same molecule, the clearance [7] was 5.5 mL/min/kg.

Molecule `C[C@@H](NC(=O)C1(NC(=O)c2cncc(F)c2)CC1)c1ccc(-n2nc(Cl)c3ccccc32)cc1F` has a Ratio [1] of 7.5 and a Papp [2] of 24 ×10⁻⁶ cm/s.

In the case of `C[C@@H](NC(=O)C1(NC(=O)c2cncc(Cl)c2)CC1)c1ccc(-n2nc(Cl)c3ccccc32)cc1F`, the Ratio [1] was 2.5, the Papp [2] was 15 ×10⁻⁶ cm/s and the half-life [6] was 360 min. The clearance [7] was 3.1 mL/min/kg.

Work on `C[C@@H](NC(=O)C1(NC(=O)c2cncc(Br)c2)CC1)c1ccc(-n2nc(Cl)c3ccccc32)cc1F` yielded a Ratio [1] of 2.3, a Papp [2] of 13 ×10⁻⁶ cm/s and a bioavailability [3] of 24%. For the same molecule, the half-life [4] was 186 min, the clearance [5] was 2.5 mL/min/kg and the half-life [6] was 456 min. It also gave a clearance [7] of 3.8 mL/min/kg.

With `C[C@@H](NC(=O)C1(NC(=O)c2ccnnc2)CC1)c1ccc(-n2nc(Cl)c3ccccc32)cc1F` the Ratio [1] was 29.4 and the Papp [2] was 25 ×10⁻⁶ cm/s.

With `C[C@@H](NC(=O)C1(NC(=O)c2cncnc2)CC1)c1ccc(-n2nc(Cl)c3ccccc32)cc1F` the Ratio [1] was 5.9 and the Papp [2] was 24 ×10⁻⁶ cm/s.

`C[C@@H](NC(=O)C1(NC(=O)c2cnccn2)CC1)c1ccc(-n2nc(Cl)c3ccccc32)cc1F` gave a Ratio [1] of 1.6 and a Papp [2] of 30 ×10⁻⁶ cm/s.

Work on `C[C@@H](NC(=O)C1(NC(=O)c2cncc(Cl)n2)CC1)c1ccc(-n2nc(Cl)c3ccccc32)cc1F` yielded a Ratio [1] of 1.8, a Papp [2] of 24 ×10⁻⁶ cm/s and a half-life [4] of 96 min. The clearance [5] was 105 mL/min/kg, the half-life [6] was 906 min and the clearance [7] was 10.5 mL/min/kg.

`COC(=O)c1c(F)cccc1-c1ccc(CNC(=O)C2(NC(=O)C(F)(F)F)CC2)c(F)c1` gave a Ratio [1] of 4.1.

Reference: ChEMBL document CHEMBL1800002, “Indazole derivatives as novel bradykinin B1 receptor antagonists” (Bioorg Med Chem Lett, 2010)
